Data as given in patent EP4635945A1, “CRYSTAL FORM OF PROXIMOD, PREPARATION METHOD THEREFOR, AND USE THEREOF” (Jiankuan (Suzhou) Biotechnology Co., Ltd, priority 2022, dated 2024).

Assay: Solid-state stability of crystal forms on storage (XRPD, purity)
Type: physicochemical
Settings: for Maximum single impurity after storage / Crystal form after storage / Main purity after storage: 30 days, exposed; for Time the crystal form remains stable: at 60 °C, 92.5% RH, and 45 °C/75% RH
Experimental: The crystal forms of the samples before and after storage were tested by XRPD.

## CCCc1nc(-c2ccc(-c3ccc(CCC(N)(CO)CO)cc3)cc2)co1.Cl [Crystal form A, 2-amino-2-{2-(4'-(2-propyloxazol-4-yl)-[1,1'-biphenyl]-4-yl)ethyl}-1,3-propanediol hydrochloride]
At 40 °C/75% RH
  Maximum single impurity after storage: Maximum single impurity: 0.04 A%
At 40 °C/75% RH, hydrochloride
  Crystal form after storage: Crystal form A
  Main purity after storage: Main purity: 99.82 A%
At 60 °C
  Maximum single impurity after storage: Maximum single impurity: 0.04 A%
At 60 °C, hydrochloride
  Crystal form after storage: Crystal form A
  Main purity after storage: Main purity: 99.80 A%
At 92.5%RH
  Maximum single impurity after storage: Maximum single impurity: 0.04 A%
At 92.5%RH, hydrochloride
  Crystal form after storage: Crystal form A
  Main purity after storage: Main purity: 99.81 A%
  Maximum single impurity before storage: Maximum single impurity: 0.04 A%
  Time the crystal form remains stable: at least 30 days
hydrochloride
  Main purity before storage: Main purity: 99.79 A%
In light, hydrochloride
  Crystal form after storage: Crystal form A
  Main purity after storage: Main purity: 98.83 A%
  Maximum single impurity after storage: Maximum single impurity: 0.43 A%

## CCCc1nc(-c2ccc(-c3ccc(CCC(N)(CO)CO)cc3)cc2)co1.Cl [Crystal form B, 2-amino-2-{2-(4'-(2-propyloxazol-4-yl)-[1,1'-biphenyl]-4-yl)ethyl}-1,3-propanediol hydrochloride]
At 40 °C/75% RH
  Maximum single impurity after storage: Maximum single impurity: 0.04 A%
At 40 °C/75% RH, hydrochloride
  Crystal form after storage: Crystal form B
  Main purity after storage: Main purity: 99.80 A%
At 60 °C
  Maximum single impurity after storage: Maximum single impurity: 0.04 A%
At 60 °C, hydrochloride
  Crystal form after storage: Crystal form B
  Main purity after storage: Main purity: 99.79 A%
At 92.5%RH
  Maximum single impurity after storage: Maximum single impurity: 0.04 A%
At 92.5%RH, hydrochloride
  Crystal form after storage: Crystal form B
  Main purity after storage: Main purity: 99.83 A%
  Maximum single impurity before storage: Maximum single impurity: 0.04 A%
  Time the crystal form remains stable: at least 30 days
hydrochloride
  Main purity before storage: Main purity: 99.78 A%
In light, hydrochloride
  Crystal form after storage: Crystal form B
  Main purity after storage: Main purity: 99.19 A%
  Maximum single impurity after storage: Maximum single impurity: 0.21 A%
